# Values quoted from earlier work in patent publication US6869615B2, “Pharmaceutical formulations containing a non-steroidal antiinflammatory drug and a proton pump inhibitor” (Andrx Labs LLC, priority 2000, dated 2005).
SMILES,patients with side effects that require cessation of medication (NSAIDs such as diclofenac),"patients who experience gross bleeding and ulceration (chronic use, Langman et al, Lancet 1994)"
O=C(O)Cc1ccccc1Nc1c(Cl)cccc1Cl [diclofenac],about 20%,
CN1C(C(=O)Nc2ccccn2)=C(O)c2ccccc2S1(=O)=O [piroxicam],,up to 4%
